In patent US20240317774A1, “Pharmaceutical Compound” (GLAXOSMITHKLINE INTELLECTUAL PROPERTY DEVELOPMENT LIMITED, priority 2021, published 2024):
Read-outs that look alike come from different tables or passages of the source.

Tests used:
[1] = target: T1, cytochrome bc1 of mitochondria isolated from human cells (HEK293) (Homo sapiens, UniProt P00156); assay: Enzymatic bc1 inhibition, cytochrome c reductase activity, human mitochondria; type: biochemical; conditions: for IC50: activity in the human target, read-out: Hbc1 IC50; for Tox window selectivity index: human bc1 vs P. falciparum bc1
T1 construct: endogenous in cells; host or cells: HEK293 (isolated mitochondria)
Protocol: (§1) For cytochrome bc1 experiments, mitochondria were isolated as follows: parasitized erythrocytes were harvested by centrifugation and lysed with 0.05% (w/v) saponin in RPMI. Then parasites were washed three times with H-medium (0.07 M sucrose, 0.21 M mannitol, 1 mM EGTA, 5 mM MgCl2, 5 mM KH2PO4, and 4 mM HEPES, pH 7.4) and resuspended in the same medium in the presence of 1 mM PMSF and protease inhibitor cocktail (Roche Complete). Parasites were disrupted by N2 cavitation (4639 Cell disruption Bomb, Parr Instrument, Moline, IL, USA) at 1600 psi for 25 min at 4° C. Unbroken cells and cell debris were removed by centrifugation at 1,200×g for 10 min at 4° C. The mitochondrial fraction was pelleted at 10,000×g for 20 min at 4° C. The mitochondrial pellet was gently resuspended in 0.8 M sucrose, 1 mM EDTA, 10 mM Tris-HCl PH 7.4, and 0.1% BSA prior to separation on a 1-2 M sucrose gradient. The sample was centrifuged on a gradient at 80,000×g for 2 hr at 4° C. The mitochondria were then recovered and washed with 1 mM EDTA, 10 mM Tris-HCL pH 7.4 to remove sucrose, and resuspended in H-medium with protease inhibitor cocktail and 1 mM PMSF. Samples were stored at −80° C. until use. In the case of human mitochondria, HEK293 human cell line was used as starting material. Cells were pelleted at 400×g 10 min and disrupted by N2 cavitation. Mitochondria then were isolated using the method described above. Cytochrome c reductase activity was assayed by a modification of the method of Fry and Pudney, Biochem. Pharmacol., 43 (1992), pp. 1545-1553. Mitochondria (40 μg/ml) were diluted in reaction buffer (250 mM sucrose, 50 mM KH2PO4, 0.2 mM EDTA, 1 mM NaN3, and 2.5 mM KCN) containing 50 μM cytochrome c. Reactions were started by addition of 25 μM decylubiquinol and monitored by reduction of cytochrome c at 550 nm. To assure the linearity of the enzymatic reaction only data from the first 60 s were collected. Decylubiquinol substrate was prepared by reducing decylubiquinone (Sigma-Aldrich, St. Louis, MO, USA) in ethanol with sodium borohydride. Decylubiquinol was aliquoted and stored in acidified ethanol at −80° C. Inhibition of bc1 activity on mitochondria isolated from human parasites (P. falciparum 3D7A), rodent parasites (P. berghei ANKA) and human cells (HEK293).

[2] = tested on: P. falciparum infected erythrocytes; assay: Blood stages activity, [3H]hypoxanthine incorporation method; type: cell-based; conditions: Plasmodium falciparum, Erythrocyte; whole cell activity; read-out: WC IC50
Protocol: The sensitivity of P. falciparum infected erythrocytes to the compound was determined using the [3H]hypoxanthine incorporation method with an inoculum of 0.5% parasitemia (ring stage) and 2% hematocrit. The parasites were grown in RPMI 1640, 25 mM HEPES and supplemented with 5% Albumax. Plates are incubated at 37° C., 5% CO2, 5% O2, 90% N2. After 24 h of incubation, [3H]hypoxanthine is added and plates are incubated for another 24 h. After that period, plates are harvested on a glass fiber filter using a TOMTEC Cell harvester 96. Filters are dried and melt on scintillator sheets and the bound radioactivity is quantified by use of a Wallac Microbeta Trilux (Model 1450 LS-Perkin Elmer). IC50s are determined using Grafit 7 program (Grafit program; Erithacus Software, Horley, Surrey, United Kingdom).

P. falciparum 3D7A = assay: Panel of P. falciparum strains: 3D7A; type: cell-based; conditions: Plasmodium falciparum, read-out: IC50 (mean μM ± SD) 3D7A
P. falciparum Dd2 = assay: Panel of P. falciparum strains: Dd2; type: cell-based; conditions: strain Dd2
P. falciparum Tm90C2A = assay: Panel of P. falciparum strains: Tm90C2A; type: cell-based; conditions: strain Tm90C2A
P. falciparum Tm90C2B = type: cell-based; conditions: strain Tm90C2B
P. falciparum FCR3 = assay: Panel of P. falciparum strains: FCR3; type: cell-based; conditions: strain FCR3
[3] = target: T2, cytochrome bc1 of mitochondria isolated from human parasites (P. falciparum 3D7A) (Plasmodium falciparum, UniProt Q02768); assay: Enzymatic bc1 inhibition, cytochrome c reductase activity, P. falciparum mitochondria; type: biochemical
T2 construct: endogenous in cells; host or cells: P. falciparum 3D7A parasites from parasitized erythrocytes (isolated mitochondria)
Protocol: as §1

[4] = activity in the P. falciparum target, read-out: p.fbc1 IC50

T2 sequence (Q02768 whole entry): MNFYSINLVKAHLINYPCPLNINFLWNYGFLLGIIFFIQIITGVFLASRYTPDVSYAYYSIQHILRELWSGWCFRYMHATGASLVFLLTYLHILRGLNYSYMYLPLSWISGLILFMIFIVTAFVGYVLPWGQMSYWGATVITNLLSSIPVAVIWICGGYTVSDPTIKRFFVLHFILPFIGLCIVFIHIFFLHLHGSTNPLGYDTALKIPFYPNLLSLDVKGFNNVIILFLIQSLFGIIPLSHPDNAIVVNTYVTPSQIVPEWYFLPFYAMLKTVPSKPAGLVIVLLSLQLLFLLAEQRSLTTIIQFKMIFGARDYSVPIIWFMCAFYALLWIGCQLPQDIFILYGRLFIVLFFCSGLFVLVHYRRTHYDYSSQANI

Cc1[nH]c2sc3cc(-c4ccc(CO)cc4)ccc3c2c(=O)c1Cl [Example 6, 3-chloro-7-(4-(hydroxymethyl)phenyl)-2-methylbenzo[4,5]thieno[2,3-b]pyridin-4(1H)-one]
IC50 [1]: 5420 nM
IC50 [2]: 0.946 nM

C[C@H]1[C@@H](O)O[C@@H]2O[C@@]3(C)CC[C@H]4[C@H](C)CC[C@@H]1[C@@]24OO3 [Dihydroartemisinine]
IC50 (P. falciparum 3D7A; strain 3D7A): 0.004 ± 0.0001 µM
Pf IC50 Ratio vs Pf IC50 3D7, Dd2 (P. falciparum Dd2): 1
Pf IC50 Ratio vs Pf IC50 3D7, Tm90C2A (P. falciparum Tm90C2A): 1
Pf IC50 Ratio vs Pf IC50 3D7, Tm90C2B (P. falciparum Tm90C2B): 1
Pf IC50 Ratio vs Pf IC50 3D7, FCR3 (P. falciparum FCR3): 1

Cc1[nH]c2sc3cc(-c4ccccc4OC(F)(F)F)ccc3c2c(=O)c1Cl [Example 4, 3-chloro-2-methyl-7-(2-(trifluoromethoxy)phenyl)benzo[4,5]thieno[2,3-b]pyridin-4(1H)-one]
IC50 [1]: 1560 nM
Tox window selectivity index [1]: 1625
IC50 [3, 4]: 0.96 nM
IC50 [2]: 0.732 nM

CCc1nc(N)nc(N)c1-c1ccc(Cl)cc1 [Pyrimethamine]
IC50 (P. falciparum 3D7A; strain 3D7A): 0.032 ± 0.001 µM
Pf IC50 Ratio vs Pf IC50 3D7, Dd2 (P. falciparum Dd2): >312
Pf IC50 Ratio vs Pf IC50 3D7, Tm90C2A (P. falciparum Tm90C2A): >312
Pf IC50 Ratio vs Pf IC50 3D7, Tm90C2B (P. falciparum Tm90C2B): >88
Pf IC50 Ratio vs Pf IC50 3D7, FCR3 (P. falciparum FCR3): 3

C[C@H]1[C@H](OC(=O)CCC(=O)O)O[C@@H]2O[C@@]3(C)CC[C@H]4[C@H](C)CC[C@@H]1[C@@]24OO3 [Artesunate]
IC50 (P. falciparum 3D7A): 0.014 ± 0.0003 µM
Pf IC50 Ratio vs Pf IC50 3D7, Dd2 (P. falciparum Dd2): 1
Pf IC50 Ratio vs Pf IC50 3D7, Tm90C2A (P. falciparum Tm90C2A): 1
Pf IC50 Ratio vs Pf IC50 3D7, Tm90C2B (P. falciparum Tm90C2B): 1
Pf IC50 Ratio vs Pf IC50 3D7, FCR3 (P. falciparum FCR3): 1

Cc1[nH]c2sc3cc(-c4ccc(CN(C)C5CCN(Cc6ccc(OC(F)(F)F)cc6)CC5)cc4)ccc3c2c(=O)c1Cl [Example 7, 3-chloro-2-methyl-7-(4-((methyl(1-(4-(trifluoromethoxy)benzyl)piperidin-4-yl)amino)methyl)phenyl)benzo[4,5]thieno[2,3-b]pyridin-4(1H)-one 2,2,2-trifluoroacetate]
IC50 [1]: > 10000 nM
IC50 [2]: 121 nM

O=C1C(O)=C([C@H]2CC[C@H](c3ccc(Cl)cc3)CC2)C(=O)c2ccccc21 [Atovaquone]
IC50 (P. falciparum 3D7A; strain 3D7A): 0.001 ± 0.001 µM
Pf IC50 Ratio vs Pf IC50 3D7, Dd2 (P. falciparum Dd2): 2
Pf IC50 Ratio vs Pf IC50 3D7, Tm90C2A (P. falciparum Tm90C2A): 1
Pf IC50 Ratio vs Pf IC50 3D7, Tm90C2B (P. falciparum Tm90C2B): >250
Pf IC50 Ratio vs Pf IC50 3D7, FCR3 (P. falciparum FCR3): >100

CCN(CC)CCCC(C)Nc1ccnc2cc(Cl)ccc12 (centres unmarked) [Chloroquine]
IC50 (P. falciparum 3D7A): 0.029 ± 0.006 µM
Pf IC50 Ratio vs Pf IC50 3D7, Dd2 (P. falciparum Dd2): >7
Pf IC50 Ratio vs Pf IC50 3D7, Tm90C2A (P. falciparum Tm90C2A): >7
Pf IC50 Ratio vs Pf IC50 3D7, Tm90C2B (P. falciparum Tm90C2B): >14
Pf IC50 Ratio vs Pf IC50 3D7, FCR3 (P. falciparum FCR3): >7

OC(c1cc(C(F)(F)F)nc2c(C(F)(F)F)cccc12)C1CCCCN1 (centres unmarked) [Mefloquine]
IC50 (P. falciparum 3D7A; strain 3D7A): 0.037 ± 0.001 µM
Pf IC50 Ratio vs Pf IC50 3D7, Dd2 (P. falciparum Dd2): 1
Pf IC50 Ratio vs Pf IC50 3D7, Tm90C2A (P. falciparum Tm90C2A): 0.3
Pf IC50 Ratio vs Pf IC50 3D7, Tm90C2B (P. falciparum Tm90C2B): 1
Pf IC50 Ratio vs Pf IC50 3D7, FCR3 (P. falciparum FCR3): 1

Cc1[nH]c2sc3cc(-c4cc(C(F)(F)F)ccc4F)ccc3c2c(=O)c1Cl [Example 3, 3-chloro-7-(2-fluoro-5-(trifluoromethyl)phenyl)-2-methylbenzo[4,5]thieno[2,3-b]pyridin-4(1H)-one]
IC50 [1]: 1520 nM
Tox window selectivity index [1]: 500
IC50 [3, 4]: 1.8 nM
IC50 [2]: 31.6 nM

Cc1[nH]c2sc3cc(-c4ccc(C(F)(F)F)cc4C(F)(F)F)ccc3c2c(=O)c1Cl [Example 5, 7-(2,4-bis(trifluoromethyl)phenyl)-3-chloro-2-methylbenzo[4,5]thieno[2,3-b]pyridin-4(1H)-one]
IC50 [1]: 2420 nM
Tox window selectivity index [1]: 2200
IC50 [3]: 1.1 nM
IC50 [2]: 0.433 nM

CCCCN(CCCC)CC(O)c1cc(Cl)cc2c1-c1ccc(Cl)cc1/C2=C/c1ccc(Cl)cc1 (centres unmarked) [Lumefantrine]
IC50 (P. falciparum 3D7A): 0.011 ± 0.004 µM
Pf IC50 Ratio vs Pf IC50 3D7, Dd2 (P. falciparum Dd2): 1
Pf IC50 Ratio vs Pf IC50 3D7, Tm90C2A (P. falciparum Tm90C2A): 0.1
Pf IC50 Ratio vs Pf IC50 3D7, Tm90C2B (P. falciparum Tm90C2B): 1

Cc1[nH]c2sc3cc(-c4ccc(C(F)(F)F)cc4F)ccc3c2c(=O)c1Cl [Example 1, 3-chloro-7-(2-fluoro-4-(trifluoromethyl)phenyl)-2-methylbenzo[4,5] thieno[2,3-b]pyridin-4(1H)-one]
IC50 [1]: 3300 nM
Tox window selectivity index [1]: 300-600
IC50 (P. falciparum 3D7A; strain 3D7A): 0.012 ± 0.002 µM
IC50 [3]: 4.6 nM
Pf IC50 Ratio vs Pf IC50 3D7, Dd2 (P. falciparum Dd2): 1
Pf IC50 Ratio vs Pf IC50 3D7, Tm90C2A (P. falciparum Tm90C2A): 1
IC50 [2]: 1.46 nM
Pf IC50 Ratio vs Pf IC50 3D7, Tm90C2B (P. falciparum Tm90C2B): 7
Pf IC50 Ratio vs Pf IC50 3D7, FCR3 (P. falciparum FCR3): 1
